From US6849405B2, “Translation enhancer element of the human amyloid precursor protein gene” (The Brigham and Women's Hospital, Inc., priority 1997, dated 2005)
“And” between values parts separate entries of the source, which are not always exact repeats. Identical values can stand only once.

What was measured:
Apo-E protein synthesis = Apo-E protein synthesis (internal standard), primary astrocytes; format: cell-based; details: primary human astrocytes
Description: Secretion and labeling of APP(s) (protease-nexin-2) from primary astrocytes by IL-1 was measured in a separate set of experiments. Medium from 100 mm dishes (10 ml) of astrocyte cultures was collected after a 2-hour pulse labeling with 200 μCi/ml [^35S]-methionine. APP in 5 ml of precleared medium was immunoprecipitated using a 1:1500 dilution of rabbit polyclonal serum specific for amino acids 595-611 of APP (R1736, D. Selko). Apolipoprotein E was immunoprecipitated from 5 ml of culture supernatant using a 1:200 dilution of a polyclonal antiserum (Chemicon).
In all labeling experiments, immunoprecipitated protein was collected by the binding of antibody-labeled antigen complexes to Protein A Sepharose™ beads. Immunoprecipitated samples were applied to 10-20% tris-tricine gels (Novex) and the samples were electrophoresed in tris-tricine buffer according to the manufacturer's instructions. The gels were fixed with 25% methanol, […] for 1 hour, treated with fluorographic reagent (Amplify, Amersham) for 30 minutes, dried, and exposed to X-omat Kodak film overnight at −80° C.

[1] = tested on: ferritin-H subunit synthesis in astrocytoma (U373MG) cells; experiment: Ferritin-H subunit synthesis, astrocytoma cells; format: cell-based, human; details: 0.5 ng/ml, 16 hrs
Description: (§1) Primary human astrocytes were prepared by trypsinization of human fetal brain tissue by a previously described method (Das, et al., Neuron 14; 447 (1995)). Cells were seeded onto poly-L-lysine (10 μg/ml) coated plates and were grown to 70% confluence in DMEM medium, (low glucose) supplemented with 10% fetal bovine serum. In order to eliminate microglia, the cultures were treated with 5 mM H-Leu-O-methylester (Guilian, J. Neurosci. Res. 18:155 (1987)). For immunofluorescence, cells were replated at a density of 100,000 cells per 60-mm petri dish on poly-L-lysine coated glass coverslips and grown for 24 hours in 0.5 ml of medium to allow the cells to attach. The presence of glial fibrillary acidic protein (GFAP) was detected by immunofluorescent staining of formaldehyde fixed cells using a 1:10 dilution of rabbit IgG1 antibody specific for human GFAP. Primary GFAP-specific antibody was added to the coverslips for 30 minutes at room temperature in phosphate buffered saline and 10% goat serum. The secondary antibodies used were goat anti-rabbit IgG conjugated to fluorescein isothiocyanate at a dilution of 1:100 (Boehringer). Fluorescence microscopy scored the cells used in the metabolic experiments as 95% pure astrocytes. […] The U373MG astrocytoma cell line was cultured on 100 mm uncoated dishes to 60-80% confluence in DMEM medium supplemented with 10% fetal bovine serum. […]

[2] = tested on: L-ferritin synthesis in astrocytoma (U373MG) cells; experiment: L-ferritin synthesis, astrocytoma cells; format: cell-based, human; details: 0.5 ng/ml, 16 hrs
Description: as §1

[3] = tested on: APP mRNA 5′ UTR (pSV2(APP)CAT reporter); experiment: CAT reporter activity in pSV2(APP)CAT-transfected astrocytoma cells; format: cell-based, human; details: for increase in CAT activity, maximal: pSV2(APP)CAT-transfected astrocytoma cells
Description: The pSV2(APP)CAT construct contains the APP gene 5′ UTR in between the SmaI and the NruI sites (+52 nt and +142 nt from the 5′ cap site respectively). pSV2(APP)CAT was prepared by two steps of subcloning. (1) A 3 kb SmaI-HindIII fragment containing the APP gene, including the coding region and a segment of the 3′ UTR was subcloned into compatible StuI-HindIII sites unique to the 5′ UTR of the CAT gene in the pSV2CAT expression vector. (2) The APP gene fragment in between the NruI and HindIII sites was removed from the construct. The restriction sites were then blunt-ended and religated. In the pSV2(APP)CAT transfectants, 90 nt of the APP gene 5′ UTR were expressed as part of a chimeric […] 5′ leader in the 1.5 kb APP/CAT transcript. The pSV2CAT construct contains the 5′ end of the CAT gene inserted into the unique polylinker site in pBluescript. A 250 nt HindIII/EcoRI fragment from the CAT gene in pSV2CAT was subcloned into the pBS vector (Stratagene). The CAT gene fragment codes for 36 nt of the CAT gene 5′ UTR and 218 bp of the 5′ end of the coding sequence of the CAT gene.
Astrocytoma and neuroblastoma cells were transfected with pSV2CAT or pSV2(APP)CAT by lipofection. Briefly, lipofectamine reagent (Boehringer) was added to DMEM (without serum) and allowed to sit 30 minutes at room temperature. Plasmids (10 μg) in an equal volume of DMEM were then added, and, after sitting for 45 minutes at room temperature, the lipid/DNA solution was added to 60% confluent cells on 100×20 mm cell culture plates. After 4 hours, this solution was removed, and the cells were washed twice in DMEM (without serum). Fresh DMEM medium (containing 10% fetal calf serum) was added. At this time, treatments were administered which included: (1) 0.5 ng/ml IL-1α; (2) 0.5 ng/ml IL-1β; (3) 5 μM Fe2TF (holo-transferrin); and (4) unstimulated controls. […]
After harvesting, cells were resuspended in 100 μl 0.25 M Tris, pH 7.8, and subjected to three cycles of freezing (liquid nitrogen) and […] (37° C.) to lyse cells. […] Protein concentration was determined by a Biorad assay, and exactly 20 μg of lysate was added to a CAT reaction mix containing 50 μl 1M Tris, pH 7.8, 20 μl acetylcoenzyme-A (3.5 mg/ml) and […] ^14C-labeled chloramphenicol (25 mCi/ml). […] For quantitative analysis, the areas on the TLC plates which aligned with dots on the film were excised and the radioactivity was counted in 5 ml of scintillation cocktail (Econofluor) using a scintillation counter (Hewlett Packard). In some experiments, CAT activity was measured by counting the amount of CAT reaction product diffusing into liquid scintillation fluid as described previously (Rogers, et al., Nucl. Acid Res. 22:2678 (1994)). […]

Substance	ApoE protein synthesis (Apo-E protein synthesis)	enhanced rate of ferritin-H subunit synthesis [1] [fold]	enhanced rate of L-ferritin synthesis [2] [fold]	increase in CAT activity, average ([3]; pSV2(APP)CAT transfectants, matching experiments, average) [fold]	increase in CAT activity, maximal [3]	enhancement of CAT activity, parallel transfection ([3]; pSV2(APP)CAT transfectants, parallel to the pSV2CAT transfection) [fold]
interleukin-1α [IL-1α]	no increase	5	2	2.3	3 fold and 4 fold	
interleukin-1β [IL-1β]	no increase	5	2		4 fold	3
